Data from patent publication US10183014B2, “Ocular formulations for drug-delivery and protection of the anterior segment of the eye” (PanOptica, Inc., priority 2014, dated 2019).

Key:
[1] = Ocular pharmacokinetics of formulations, Example 20-5; type: in vivo, Dutch Belted rabbits; conditions: TRIS 0.60%, glycerol 2%, HEC 0.2%, HPMC 0.08%, Vitamin K3 1 μM, 1 hr post dose on Day 5
Experimental: The study design (Table 19-1) consisted of forty-seven (47) Dutch Belted rabbits, each receiving a 30 μL bilateral topical ocular dose. Various suspension formulations of the present application were evaluated and compared against a cyclodextrin-based eye drops solution (Control Group 1, Table 19-1). Formula II or Compound-I was used in the test suspensions as well as the Eye Drops solution.
Ocular sampling occurred one hour following the first daily dose on Day 5 for all groups. Whole blood samples using K2EDTA as an anticoagulant were collected from all animals on Day 5, 1 hour post dose. The whole blood was placed on ice until samples were spun in a centrifuge to separate the plasma. Aqueous humor, conjunctiva, cornea, central retina, peripheral retina, central choroid, and peripheral choroid samples were collected following necropsy. Samples were then frozen at −70° C. or lower. For all Groups 1-15, plasma, central retina, central choroid, and cornea samples were assayed. For Group 5 only, samples were analyzed for Vitamin K3.
An analytical method for the analysis of Vitamin K3 was determined in plasma, central retina, central choroid, and cornea samples from Group 5 animals. A calibration curve prepared in control vitreous humor was used to determine the concentration of Vitamin K3. Internal standard (IS) responses were inconsistent for the central choroid and plasma samples. Thus, positive plasma results were likely due to the reduced IS response.

[2] = 5-day PK with topical ocular Compound-I in cyclodextrin-based solutions (Example 6); type: in vivo, Dutch-Belted rabbits; conditions: HPβCD solutions; for concentration at 1 h: q.d. groups (4, 5a, 6a, 7, 8, 11, 12), 4 days, 1 hr after first daily dose day 5
Experimental: All doses were administered with ±1 hour of the scheduled dose time, except on day 1 for Groups 1, 4, and 10. The first dose on day 1 was administered at 12:00 PM, and the second dose (for Groups 1 and 10) was administered approximately 4 hours after. This was due to delayed arrival of formulations. All other dosing for these groups was as scheduled. On day 1, Groups 4-8, and 11-12 received one dose (q.d.) for four (4) days. On days 1 through 4, Groups 1-3, and 9-10 received b.i.d. dosing approximately 8 hours apart for four (4) days.
Ocular sampling occurred one hour following the first daily dose on day 5 for all groups, except Groups 5b and 6b, where ocular sampling occurred 24 hours after the first daily dose on day 4.
Blood samples for plasma collection were obtained just prior to scheduled euthanasia for all animals. […] Cornea, central retina, and central choroid samples from groups 1-12 were assayed. Aqueous humor, peripheral retina, and peripheral choroid samples were not assayed.

[3] = biological target: AURKB (Aurora B) (Homo sapiens, UniProt Q96GD4); assay: In vitro inhibition of tyrosine kinases; type: biochemical; conditions: read-out: Mean % Inhibition at 1 μM Compound-I; 1 μM (568.9 ng/mL)
AURKB (Aurora B), sequence (Q96GD4 whole entry, species assumed): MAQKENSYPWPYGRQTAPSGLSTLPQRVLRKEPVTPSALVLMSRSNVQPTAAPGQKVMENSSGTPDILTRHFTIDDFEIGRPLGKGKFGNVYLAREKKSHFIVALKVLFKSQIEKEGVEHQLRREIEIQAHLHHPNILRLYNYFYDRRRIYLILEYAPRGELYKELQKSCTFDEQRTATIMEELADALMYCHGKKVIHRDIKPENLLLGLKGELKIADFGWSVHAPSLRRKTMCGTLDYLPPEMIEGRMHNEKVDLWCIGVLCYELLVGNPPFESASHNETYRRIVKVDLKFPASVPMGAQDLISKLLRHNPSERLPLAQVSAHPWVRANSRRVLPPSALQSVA

[4] = biological target: EPHB-1 (Homo sapiens, UniProt P54762); assay: In vitro inhibition of tyrosine kinases; type: biochemical; conditions: read-out: Mean % Inhibition at 1 μM Compound-I; 1 μM (568.9 ng/mL)
EPHB-1, sequence (P54762 18-984, species assumed): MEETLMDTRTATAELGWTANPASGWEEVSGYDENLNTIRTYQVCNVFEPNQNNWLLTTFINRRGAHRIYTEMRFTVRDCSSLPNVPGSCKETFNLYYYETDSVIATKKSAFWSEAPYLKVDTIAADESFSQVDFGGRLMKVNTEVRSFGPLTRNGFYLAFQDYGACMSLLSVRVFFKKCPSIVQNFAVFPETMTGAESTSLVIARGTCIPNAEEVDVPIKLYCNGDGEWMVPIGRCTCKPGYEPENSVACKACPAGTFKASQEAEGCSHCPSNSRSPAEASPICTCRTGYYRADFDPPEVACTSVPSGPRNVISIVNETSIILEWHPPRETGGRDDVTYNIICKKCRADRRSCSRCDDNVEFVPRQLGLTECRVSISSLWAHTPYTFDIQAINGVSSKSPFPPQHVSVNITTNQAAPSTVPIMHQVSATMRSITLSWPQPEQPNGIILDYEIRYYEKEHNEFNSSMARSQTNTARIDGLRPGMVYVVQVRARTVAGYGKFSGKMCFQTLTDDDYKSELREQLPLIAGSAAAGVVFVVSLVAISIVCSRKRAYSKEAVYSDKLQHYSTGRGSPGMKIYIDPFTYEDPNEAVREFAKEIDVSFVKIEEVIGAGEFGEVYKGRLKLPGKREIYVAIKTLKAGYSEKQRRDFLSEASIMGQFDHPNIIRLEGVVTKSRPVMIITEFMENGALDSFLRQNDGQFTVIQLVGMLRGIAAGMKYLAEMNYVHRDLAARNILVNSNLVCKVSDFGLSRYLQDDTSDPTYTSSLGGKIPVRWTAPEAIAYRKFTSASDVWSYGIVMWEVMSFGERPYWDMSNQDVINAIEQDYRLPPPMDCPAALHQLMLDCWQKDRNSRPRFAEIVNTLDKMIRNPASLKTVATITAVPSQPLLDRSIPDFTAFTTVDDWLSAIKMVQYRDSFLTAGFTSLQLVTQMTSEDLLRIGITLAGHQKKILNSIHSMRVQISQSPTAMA

Structure (SMILES): Cl.NC(=O)c1c(OCc2c(F)cc(Br)cc2F)nsc1NC(=O)NCCCCN1CCCC1 [Compound-I, 3-[(4-bromo-2,6-difluorophenyl)methoxy]-5-[[[[4-(1-pyrrolidinyl)butyl]amino]carbonyl]amino]-4-isothiazolecarboxamide hydrochloride]
- concentration at 1 h ([1]; Group 2: 4 mg/mL suspension, 30 μm particles, pH 6, QD for 4 days, read-out: Central Retina concentration): 0.0506 µM
- concentration at 1 h ([1]; Group 2: 4 mg/mL suspension, 30 μm particles, pH 6, QD for 4 days, read-out: Cornea concentration): 7.48 µM
- Plasma concentration ([1]; Group 3: 4 mg/mL suspension, 3 μm particles, pH 6, QD for 4 days): 7.04 nM
- concentration at 1 h ([1]; Group 3: 4 mg/mL suspension, 3 μm particles, pH 6, QD for 4 days, read-out: Central Choroid concentration): 0.159 µM
- concentration at 1 h ([1]; Group 3: 4 mg/mL suspension, 3 μm particles, pH 6, QD for 4 days, read-out: Central Retina concentration): 0.0928 µM
- concentration at 1 h ([1]; Group 3: 4 mg/mL suspension, 3 μm particles, pH 6, QD for 4 days, read-out: Cornea concentration): 10.2 µM
- Plasma concentration ([1]; Group 4: 4 mg/mL suspension (Control), 50 μm particles (Native), pH 6, QD for 4 days): 5.98 nM
- concentration at 1 h ([1]; Group 4: 4 mg/mL suspension (Control), 50 μm particles (Native), pH 6, QD for 4 days, read-out: Central Choroid concentration): 0.128 µM
- concentration at 1 h ([1]; Group 4: 4 mg/mL suspension (Control), 50 μm particles (Native), pH 6, QD for 4 days, read-out: Central Retina concentration): 0.0735 µM
- concentration at 1 h ([1]; Group 4: 4 mg/mL suspension (Control), 50 μm particles (Native), pH 6, QD for 4 days, read-out: Cornea concentration): 3.93 µM
- Plasma concentration ([1]; Group 6: 4 mg/mL suspension, 50 μm particles, pH 6, BID for 4 days): 4.15 nM
- concentration at 1 h ([1]; Group 6: 4 mg/mL suspension, 50 μm particles, pH 6, BID for 4 days, read-out: Central Choroid concentration): 0.199 µM
- concentration at 1 h ([1]; Group 6: 4 mg/mL suspension, 50 μm particles, pH 6, BID for 4 days, read-out: Central Retina concentration): 0.0441 µM
- concentration at 1 h ([1]; Group 6: 4 mg/mL suspension, 50 μm particles, pH 6, BID for 4 days, read-out: Cornea concentration): 6.41 µM
- Plasma concentration ([1]; Group 8: 1 mg/mL suspension, 50 μm particles, pH 6, BID for 4 days): 2.11 nM
- concentration at 1 h ([1]; Group 8: 1 mg/mL suspension, 50 μm particles, pH 6, BID for 4 days, read-out: Central Choroid concentration): 0.0708 µM
- concentration at 1 h ([1]; Group 8: 1 mg/mL suspension, 50 μm particles, pH 6, BID for 4 days, read-out: Central Retina concentration): 0.0342 µM
- concentration at 1 h ([1]; Group 8: 1 mg/mL suspension, 50 μm particles, pH 6, BID for 4 days, read-out: Cornea concentration): 1.72 µM
- Plasma concentration ([1]; Group 10: 2 mg/mL suspension, 50 μm particles, pH 6, BID for 4 days): 3.76 nM
- concentration at 1 h ([1]; Group 10: 2 mg/mL suspension, 50 μm particles, pH 6, BID for 4 days, read-out: Central Retina concentration): 0.0507 µM
- Plasma concentration ([1]; Group 13 (different batch of Compound-I): 4 mg/mL suspension, 50 μm particles, pH 6, QD for 4 days): 7.09 nM
- concentration at 1 h ([1]; Group 13 (different batch of Compound-I): 4 mg/mL suspension, 50 μm particles, pH 6, QD for 4 days, read-out: Central Retina concentration): 0.0766 µM
- concentration at 1 h ([1]; Group 13 (different batch of Compound-I): 4 mg/mL suspension, 50 μm particles, pH 6, QD for 4 days, read-out: Cornea concentration): 8.55 µM
- Plasma concentration ([1]; Group 14 (different batch of Compound-I): 4 mg/mL suspension, 50 μm particles, pH 6, QD for 4 days): 2.68 nM
- concentration at 1 h ([1]; Group 14 (different batch of Compound-I): 4 mg/mL suspension, 50 μm particles, pH 6, QD for 4 days, read-out: Central Choroid concentration): 0.203 µM
- concentration at 1 h ([1]; Group 14 (different batch of Compound-I): 4 mg/mL suspension, 50 μm particles, pH 6, QD for 4 days, read-out: Central Retina concentration): 0.0384 µM
- concentration at 1 h ([1]; Group 14 (different batch of Compound-I): 4 mg/mL suspension, 50 μm particles, pH 6, QD for 4 days, read-out: Cornea concentration): 3.88 µM
- Plasma concentration ([1]; Group 15 (different batch of Compound-I): 4 mg/mL suspension, 50 μm particles, pH 6, QD for 4 days): 4.69 nM
- concentration at 1 h ([1]; Group 15 (different batch of Compound-I): 4 mg/mL suspension, 50 μm particles, pH 6, QD for 4 days, read-out: Central Choroid concentration): 0.196 µM
- concentration at 1 h ([1]; Group 15 (different batch of Compound-I): 4 mg/mL suspension, 50 μm particles, pH 6, QD for 4 days, read-out: Central Retina concentration): 0.0630 µM
- concentration at 1 h ([1]; Group 15 (different batch of Compound-I): 4 mg/mL suspension, 50 μm particles, pH 6, QD for 4 days, read-out: Cornea concentration): 4.23 µM
- concentration at 24 h ([2]; Dutch-Belted, rabbit, central choroid, topical, 30 μL bilateral, q.d. groups 5b, 6b, 24 hr after first daily dose day 4): 194 nM
- concentration at 1 h ([2]; Dutch-Belted, rabbit, central choroid, topical, 30 μL bilateral, read-out: Average Concentration Central Choroid): 203 nM
- concentration at 1 h ([2]; Dutch-Belted, rabbit, central retina, topical, 30 μL bilateral, read-out: Average Concentration Central Retina): 48.1 nM
- Average Concentration Central Retina ([2]; q.d. groups 5b, 6b, 24 hr after first daily dose day 4): <LLOQ
- inhibition at 1 µM [3]: 82%
- inhibition at 1 µM [4]: 83%
